Experimental data reported in patent US9084826B2, “Fatty acid conjugates of statin and FXR agonists; compositions and method of uses” (Catabasis Pharmaceuticals, Inc., priority 2012, dated 2015).

System: PCSK9 secreted from HepG2 cells
Test: PCSK9 secretion assay in HepG2 cells (PCSK9 ELISA)
Assay type: cell-based
Settings: 16 hours incubation
Method: HepG2 cells (from ATCC, Catalog no. HB-8065) were maintained in DMEM (Invitrogen) supplemented with 10% fetal bovine serum (Invitrogen). The day prior to the PCSK9 assay, cells were seeded in 96-well collagen coated plates at 25,000 cells/well.
The compounds of the invention were stored at −20° C. until used. The test article compound was dissolved in 100% ethanol to a 50 mM stock solution. This was then diluted in FBS to a final concentration of 1 mM. This solution was placed in a sonicating water bath for 30 minutes. Subsequent dilutions were then made in FBS supplemented with an equivalent volume of ethanol and mixed by vortexing.
HepG2 cells were seeded onto a collagen coated 96-well plate (Becton Dickinson, Catalog no. 35-4407) the day prior to the assay, as described above. The next day, the cell medium was removed, washed once with […] serum free DMEM to remove any residual PCSK9, and replaced with […] of serum free DMEM. Ten microliters of each compound concentration prepared in FBS was then added. Each concentration of compound was tested in triplicate. The compound was incubated with the cells overnight for 16 hours. Following this incubation, 10 µL of AlamarBlue was added to each well and cells incubated for another 2 hours. The plates were then removed and AlamarBlue fluorescence was measured (excitation, 550 nm and […]) to assess cell viability. Cell culture supernatant was then diluted […] 1× RD5P Calibrator Diluent and PCSK9 ELISA was then performed with […] of this diluted sample, as per the manufacturer's instructions. The ELISA was measured on a Victor X5 multilabel plate reader (PerkinElmer) at an absorbance of 450 nm with background correction measured at 550 nm (The PCSK9 Elisa kits can be purchased from R&D System, Catalog no. DPC900).

[1] = two tested concentrations (6.25 and 25 μM)

| Structure (SMILES) | level of PCSK9 secreted from HepG2 cells [1] | further results |
| --- | --- | --- |
| CC/C=C\C/C=C\C/C=C\C/C=C\C/C=C\C/C=C\CCC(=O)NCCNC(=O)C[C@H](O)C[C@H](O)CCn1c(-c2ccc(F)cc2)c(-c2ccccc2)c(C(=O)Nc2ccccc2)c1C(C)C [Compound I-22, 1-((3R,5R)-7-(2-(4Z,7Z,10Z,13Z,16Z,19Z)-docosa-4,7,10,13,16,19-hexaenamidoethylamino)-3,5-dihydroxy-7-oxoheptyl)-5-(4-fluorophenyl)-2-isopropyl-N,4-diphenyl-1H-pyrrole-3-carboxamide] | no significant change | – |
| CC(C)c1c(C(=O)Nc2ccccc2)c(-c2ccccc2)c(-c2ccc(F)cc2)n1CC[C@@H](O)C[C@@H](O)CC(=O)O [atorvastatin, reference compound] | – | level of PCSK9 secretion from HepG2 cells (1.25, 2.5, 5.0 and 10.0 μM, compared to the control, FIG. 1): significant increase |
| CC(C)c1nc(N(C)S(C)(=O)=O)nc(-c2ccc(F)cc2)c1/C=C/[C@@H](O)C[C@@H](O)CC(=O)O [rosuvastatin, reference compound] | increase | – |
| CC/C=C\C/C=C\C/C=C\C/C=C\C/C=C\C/C=C\CCC(=O)NCCNC(=O)C[C@H](O)C[C@@H](O)CC[C@@H]1C2C(=C[C@H](C)CC2OC(=O)C(C)(C)CC)C=C[C@@H]1C (stereo partly drawn) [Compound I-1, (3R,7S,8S)-8-((3S,5R)-7-((2-((4Z,7Z,10Z,13Z,16Z,19Z)-docosa-4,7,10,13,16,19-hexaenamido)ethyl)amino)-3,5-dihydroxy-7-oxoheptyl)-3,7-dimethyl-1,2,3,7,8,8a-hexahydronaphthalen-1-yl 2,2-dimethylbutanoate] | – | level of PCSK9 secreted from HepG2 cells (6.25 μM, FIG. 1): no significant change; level of PCSK9 secreted from HepG2 cells (25 μM, FIG. 1): decrease |
| CC/C=C\C/C=C\C/C=C\C/C=C\C/C=C\CCCC(=O)NCCNC(=O)C[C@H](O)C[C@H](O)/C=C/c1c(-c2ccc(F)cc2)nc(N(C)S(C)(=O)=O)nc1C(C)C [Compound 1-43, (5Z,8Z,11Z,14Z,17Z)—N-(2-((3R,5S,E)-7-(4-(4-fluorophenyl)-6-isopropyl-2-(N-methylmethylsulfonamido)pyrimidin-5-yl)-3,5-dihydroxyhept-6-enamido)ethyl)icosa-5,8,11,14,17-pentaenamide] | did not cause an increase | – |
